According to patent publication US9765069B2, “Antimicrobial compounds” (OXFORD UNIVERSITY INNOVATION LIMITED, priority 2012, dated 2017):
pIC50: −log10 of the molar value. Converted amounts (≈) assume the structure as drawn. Where two headings read alike, the source gives them in different places.

Legend:
H3 = assay: MIC determination (bacteria), strain H3; assay type: cell-based, H. influenzae; details: haemophilus test medium
Method: (§1) MIC determination (bacteria); MICs were determined based on Clinical and Laboratory Standards Institute (CLSI) methodology (Methods for dilution antimicrobial susceptibility tests for bacteria that grow aerobically; Approved Standard—seventh edition. 2006, M7-A7, CLSI, Wayne Pa.) by a 2-fold broth dilution technique in Mueller Hinton (pH7.4 Biorad). For S. pneumoniae, the medium was supplemented with 2.5% laked horse blood. For H. influenzae, the medium was haemophilus test medium (H.T.M.). Overnight cultures were diluted to obtain the final inoculum of 10^5 cfu/well. Incubation was 37° C. overnight in ambient air. The MIC was defined as the lowest concentration which inhibited all visual growth and expressed in μg/ml. For each bacterial species, all of the molecules were tested in the same experiment in order to give a head-to-head comparison.

S1 = assay: MIC determination (bacteria), strain S1; assay type: cell-based, S. aureus; details: 2-fold broth dilution
Method: as §1

S. aureus membrane = assay: In vitro activity in depolarization of S. aureus membrane; assay type: cell-based; details: read-out: DEP (IC50)
Description: (§2) These properties can be determined according to techniques that are well known in the art.

[1] = aqueous solubility at pH 7.4; assay type: physicochemical; details: aqueous solubility at pH 7.4 (water with 2% DMSO)
Description: as §2

[2] = system: S2 (S. aureus 2, MRSA in vivo); assay: MIC determination (bacteria), strain S2; assay type: cell-based; details: 2-fold broth dilution
Method: as §1

E2 = assay: MIC determination (bacteria), strain E2; assay type: cell-based, enterococcus; details: 2-fold broth dilution
Method: as §1

P9 = assay: MIC determination (bacteria), strain P9; assay type: cell-based, S. pneumoniae; details: 2-fold broth dilution
Method: as §1

S26 = assay: MIC determination (bacteria), strain S26; assay type: cell-based, S. aureus; details: 2-fold broth dilution
Method: as §1

E. Coli RNAP = E. Coli RNAP (Escherichia coli, UniProt P0A8T7+P0A8V2); assay: In vitro activity against E. Coli RNAP; assay type: biochemical
Chain of E. Coli RNAP (P0A8V2 whole entry): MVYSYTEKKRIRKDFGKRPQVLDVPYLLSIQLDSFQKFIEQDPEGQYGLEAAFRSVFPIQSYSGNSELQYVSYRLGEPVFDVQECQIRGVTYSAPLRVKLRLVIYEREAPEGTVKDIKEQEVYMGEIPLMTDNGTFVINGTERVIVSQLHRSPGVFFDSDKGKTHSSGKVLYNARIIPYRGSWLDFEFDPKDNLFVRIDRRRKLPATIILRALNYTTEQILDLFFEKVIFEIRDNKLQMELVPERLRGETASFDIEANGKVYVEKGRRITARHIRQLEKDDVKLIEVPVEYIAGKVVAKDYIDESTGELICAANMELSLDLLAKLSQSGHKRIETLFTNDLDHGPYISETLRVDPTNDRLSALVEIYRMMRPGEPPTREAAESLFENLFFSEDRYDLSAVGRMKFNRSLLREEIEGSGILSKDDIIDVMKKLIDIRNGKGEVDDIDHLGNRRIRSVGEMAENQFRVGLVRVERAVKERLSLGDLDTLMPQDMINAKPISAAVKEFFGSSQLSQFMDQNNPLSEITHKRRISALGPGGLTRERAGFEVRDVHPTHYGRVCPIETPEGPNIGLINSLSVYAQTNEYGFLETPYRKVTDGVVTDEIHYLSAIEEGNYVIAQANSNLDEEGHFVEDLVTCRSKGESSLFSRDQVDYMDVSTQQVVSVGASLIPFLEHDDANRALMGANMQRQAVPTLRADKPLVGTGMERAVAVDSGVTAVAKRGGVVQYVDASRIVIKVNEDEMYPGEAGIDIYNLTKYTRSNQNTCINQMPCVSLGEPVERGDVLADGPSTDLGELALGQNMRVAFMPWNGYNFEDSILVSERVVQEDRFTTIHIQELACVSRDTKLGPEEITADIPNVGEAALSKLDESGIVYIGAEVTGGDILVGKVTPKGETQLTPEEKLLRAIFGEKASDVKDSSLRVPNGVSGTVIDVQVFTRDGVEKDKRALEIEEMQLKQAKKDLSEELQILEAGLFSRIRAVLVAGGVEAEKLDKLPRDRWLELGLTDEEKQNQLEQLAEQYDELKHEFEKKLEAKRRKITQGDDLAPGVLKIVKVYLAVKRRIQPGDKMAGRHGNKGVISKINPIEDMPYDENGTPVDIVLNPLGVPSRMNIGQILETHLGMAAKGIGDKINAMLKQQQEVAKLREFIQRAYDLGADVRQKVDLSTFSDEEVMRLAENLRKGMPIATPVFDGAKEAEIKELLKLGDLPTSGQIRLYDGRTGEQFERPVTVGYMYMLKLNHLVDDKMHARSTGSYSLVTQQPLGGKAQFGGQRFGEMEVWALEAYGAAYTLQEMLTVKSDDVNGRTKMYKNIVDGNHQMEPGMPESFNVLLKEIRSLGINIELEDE
Chain of E. Coli RNAP (P0A8T7 whole entry): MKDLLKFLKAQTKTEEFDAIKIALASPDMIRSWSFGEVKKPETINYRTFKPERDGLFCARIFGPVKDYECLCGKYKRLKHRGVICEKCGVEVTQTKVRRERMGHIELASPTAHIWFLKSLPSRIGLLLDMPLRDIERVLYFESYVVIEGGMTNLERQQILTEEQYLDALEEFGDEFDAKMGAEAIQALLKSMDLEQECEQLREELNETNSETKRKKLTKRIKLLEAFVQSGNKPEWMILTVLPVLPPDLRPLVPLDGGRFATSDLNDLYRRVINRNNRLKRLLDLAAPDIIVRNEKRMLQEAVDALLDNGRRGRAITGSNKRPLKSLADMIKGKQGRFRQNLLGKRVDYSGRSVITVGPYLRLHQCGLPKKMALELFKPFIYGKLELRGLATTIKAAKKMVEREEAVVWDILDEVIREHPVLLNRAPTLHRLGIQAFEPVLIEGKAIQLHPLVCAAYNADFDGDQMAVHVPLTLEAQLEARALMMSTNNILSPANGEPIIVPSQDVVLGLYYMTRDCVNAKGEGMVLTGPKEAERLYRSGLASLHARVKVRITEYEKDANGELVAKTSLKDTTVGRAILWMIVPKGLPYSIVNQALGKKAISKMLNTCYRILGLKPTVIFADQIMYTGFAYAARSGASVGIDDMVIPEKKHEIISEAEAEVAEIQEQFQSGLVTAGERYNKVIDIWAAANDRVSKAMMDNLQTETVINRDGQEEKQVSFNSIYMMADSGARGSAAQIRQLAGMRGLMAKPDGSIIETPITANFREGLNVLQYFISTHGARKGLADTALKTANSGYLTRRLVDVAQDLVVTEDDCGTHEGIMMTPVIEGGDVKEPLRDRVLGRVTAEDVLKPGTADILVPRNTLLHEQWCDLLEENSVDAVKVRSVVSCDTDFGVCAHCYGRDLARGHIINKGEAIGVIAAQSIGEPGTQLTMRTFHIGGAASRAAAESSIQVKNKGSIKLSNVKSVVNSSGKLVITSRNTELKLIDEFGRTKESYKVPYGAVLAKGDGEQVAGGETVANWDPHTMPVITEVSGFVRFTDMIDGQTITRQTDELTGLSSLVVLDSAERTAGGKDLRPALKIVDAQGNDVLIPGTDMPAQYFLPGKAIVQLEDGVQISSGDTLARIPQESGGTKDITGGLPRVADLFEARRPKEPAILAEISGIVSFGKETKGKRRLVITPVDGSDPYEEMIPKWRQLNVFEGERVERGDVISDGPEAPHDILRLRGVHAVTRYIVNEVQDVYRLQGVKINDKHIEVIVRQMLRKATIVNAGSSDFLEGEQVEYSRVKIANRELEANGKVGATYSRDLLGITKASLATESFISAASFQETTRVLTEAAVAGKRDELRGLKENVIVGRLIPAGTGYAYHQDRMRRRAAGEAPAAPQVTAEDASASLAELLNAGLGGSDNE
Chain of E. Coli RNAP (P0A7Z4 whole entry partner): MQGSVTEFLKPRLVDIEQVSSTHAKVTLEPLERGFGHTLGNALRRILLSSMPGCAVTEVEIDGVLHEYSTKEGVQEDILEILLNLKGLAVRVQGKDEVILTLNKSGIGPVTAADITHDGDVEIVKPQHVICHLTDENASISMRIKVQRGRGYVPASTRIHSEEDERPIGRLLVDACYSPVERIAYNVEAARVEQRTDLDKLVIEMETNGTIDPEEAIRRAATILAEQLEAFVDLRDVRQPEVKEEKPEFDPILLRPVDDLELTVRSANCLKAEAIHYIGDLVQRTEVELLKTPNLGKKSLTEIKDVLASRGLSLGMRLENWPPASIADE
Chain of E. Coli RNAP (P0A800 whole entry partner): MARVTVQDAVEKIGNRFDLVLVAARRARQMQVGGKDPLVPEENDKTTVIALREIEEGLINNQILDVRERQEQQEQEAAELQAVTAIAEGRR
Description: as §2

P9B = assay: MIC determination (bacteria), strain P9B; assay type: cell-based, S. pneumoniae; details: 2-fold broth dilution
Method: as §1

[3] = system: human embryonic kidney 293 cells; assay: in vitro toxicities against human embryonic kidney 293 cells; assay type: cell-based
Description: as §2

[4] = system: human peripheral blood cells; assay: in vitro toxicities human peripheral blood cells; assay type: cell-based
Description: as §2

[5] = system: mammalian_red blood cell membrane; assay: In vitro mammalian red blood cell membrane lysis activity; assay type: cell-based; details: Active or inactive at 100 μM
Description: as §2

H4 = assay: MIC determination (bacteria), strain H4; assay type: cell-based, H. influenzae; details: haemophilus test medium; for MIC: Haemophilus influenzae
Method: as §1

P1 = assay: MIC determination (bacteria), strain P1; assay type: cell-based, S. pneumoniae; details: 2-fold broth dilution
Method: as §1

S4 = assay: MIC determination (bacteria), strain S4; assay type: cell-based, S. aureus; details: 2-fold broth dilution
Method: as §1

[6] = system: Hek293 / PMBC versus S. aureus 2, MRSA in vivo; assay: Selectivity index (LD50 Hek293/PMBC divided by MIC S. aureus 2); assay type: cell-based; details: lower LD50 of Hek293 and PMBC (converted to μg/mL) divided by MIC against S. aureus 2, MRSA in vivo
E1 = assay: MIC determination (bacteria), strain E1; assay type: cell-based, enterococcus; details: 2-fold broth dilution
Method: as §1

all strains = assay: MIC determination (bacteria), whole strain panel of Table 2; assay type: cell-based; details: read-out: MIC against the other strains
Method: as §1

[7] = Streptococcus pneumoniae, Table 2
[8] = human embryonic kidney 293 cells

## CSCCC1C(=O)/C(=C(/O)CCCOc2ccc(Cl)cc2C)C(=O)N1C(=O)CC(C)CC(C)(C)C (stereo not shown) [31j]
H3; Haemophilus influenzae, Table 2
  MIC: > 64 µg/mL
S1; Staphylococcus aureus, Table 2
  MIC: 0.5 µg/mL (≈ 0.954 µM)
S. aureus membrane; Staphylococcus aureus
  pIC50: < 4.00
[1]
  SOL: >300 µM
[2]; Staphylococcus aureus, MRSA, Table 2
  MIC: 0.5 µg/mL (≈ 0.954 µM)
E2; Enterococcus, Table 2
  MIC: 0.25 µg/mL (≈ 0.477 µM)
P9; [7]
  MIC: 0.25 µg/mL (≈ 0.477 µM)
S26; Staphylococcus aureus, Table 2
  MIC: 1 µg/mL (≈ 1.91 µM)
E. Coli RNAP
  pIC50: 4.04
P9B; [7]
  MIC: 8 µg/mL (≈ 15.3 µM)
[3]; human
  Hek293 (LD50, μM): 10.1 µM
[4]; human
  PMBC (LD50, μM): 30.3 µM
[5]
  RBC membrane lysis activity (active/inactive): Active
H4; Table 2 and its footnote f
  MIC: 8 µg/mL (≈ 15.3 µM)
P1; [7]
  MIC: 0.5 µg/mL (≈ 0.954 µM)
S4; Staphylococcus aureus, Table 2
  MIC: 1 µg/mL (≈ 1.91 µM)
[6]
  SI (Selectivity index): <11
E1; Enterococcus, Table 2
  MIC: 1 µg/mL (≈ 1.91 µM)

## CCCCCCCCCCCC(O)=C1C(=O)CCN(C(=O)c2ccccc2)C1=O [25b]
H3; Table 1
  MIC H3: 8 µg/mL (≈ 20 µM)
S1; Table 1
  MIC S1: 0.5 µg/mL (≈ 1.25 µM)
S. aureus membrane
  pIC50: 4.03
[1]
  SOL: >300 µM
[2]; Table 1
  MIC S2: 0.5 µg/mL (≈ 1.25 µM)
E2; Table 1
  MIC E2: 0.5 µg/mL (≈ 1.25 µM)
P9; Table 1
  MIC P9: 0.25 µg/mL (≈ 0.626 µM)
S26; Table 1
  MIC S26: 1 µg/mL (≈ 2.5 µM)
E. Coli RNAP
  pIC50: 4.07
P9B; Table 1
  MIC P9B: 1 µg/mL (≈ 2.5 µM)
[3]; [8]
  Hek293 (LD50, μM): >90.9 µM
[4]; human peripheral blood cells
  PMBC (LD50, μM): >90.9 µM
[5]
  RBC membrane lysis activity (active/inactive): Inactive^d
H4; Table 1
  MIC H4: 4 µg/mL (≈ 10 µM)
P1; Table 1
  MIC P1: 0.25 µg/mL (≈ 0.626 µM)
S4; Table 1
  MIC S4: 0.5 µg/mL (≈ 1.25 µM)
E1; Table 1
  MIC E1: 0.25 µg/mL (≈ 0.626 µM)

## CCCC(=O)N1CC(=O)C(=C(O)CC23CC4CC(C)(CC(C)(C4)C2)C3)C1=O [27k]
H3; Table 2
  MIC H3: 8 µg/mL (≈ 21.4 µM)
S1; Table 2
  MIC S1: 2 µg/mL (≈ 5.35 µM)
S. aureus membrane
  pIC50: < 4.00
[1]
  SOL: >300 µM
[2]; Table 2
  MIC S2: 2 µg/mL (≈ 5.35 µM)
E2; Table 2
  MIC E2: 1 µg/mL (≈ 2.68 µM)
P9; Table 2
  MIC P9: 0.5 µg/mL (≈ 1.34 µM)
S26; Table 2
  MIC S26: 2 µg/mL (≈ 5.35 µM)
E. Coli RNAP
  pIC50: 5.17
P9B; Table 2
  MIC P9B: 1 µg/mL (≈ 2.68 µM)
[3]; [8]
  Hek293 (LD50, μM): 30.3 µM
[4]; human peripheral blood cells
  PMBC (LD50, μM): 90.9 µM
[5]
  RBC membrane lysis activity (active/inactive): Active
H4; Table 2 and its footnote f
  MIC H4: 4 µg/mL (≈ 10.7 µM)
P1; Table 2
  MIC P1: 1 µg/mL (≈ 2.68 µM)
S4; Table 2
  MIC S4: 2 µg/mL (≈ 5.35 µM)
E1; Table 2
  MIC E1: 0.5 µg/mL (≈ 1.34 µM)

## CSCCC1C(=O)C(=C(O)CC23CC4CC(CC(C4)C2)C3)C(=O)N1C(=O)C1CCCCC1 (stereo not shown) [31f]
H3; Table 2
  MIC H3: 32 µg/mL (≈ 69.6 µM)
S1; Table 2
  MIC S1: 0.5 µg/mL (≈ 1.09 µM)
S. aureus membrane
  pIC50: < 4.00
[1]
  SOL: >300 µM
[2]; Table 2
  MIC S2: 2 µg/mL (≈ 4.35 µM)
E2; Table 2
  MIC E2: 1 µg/mL (≈ 2.18 µM)
P9; Table 2
  MIC P9: 0.5 µg/mL (≈ 1.09 µM)
S26; Table 2
  MIC S26: 1 µg/mL (≈ 2.18 µM)
E. Coli RNAP
  pIC50: 4.40
P9B; Table 2
  MIC P9B: 2 µg/mL (≈ 4.35 µM)
[3]; [8]
  Hek293 (LD50, μM): 90.9 µM
[4]; human peripheral blood cells
  PMBC (LD50, μM): >90.9 µM
[5]
  RBC membrane lysis activity (active/inactive): Inactive^d
H4; Table 2 and its footnote f
  MIC H4: 2 µg/mL (≈ 4.35 µM)
P1; Table 2
  MIC P1: 1 µg/mL (≈ 2.18 µM)
S4; Table 2
  MIC S4: 0.5 µg/mL (≈ 1.09 µM)
E1; Table 2
  MIC E1: 0.5 µg/mL (≈ 1.09 µM)

## CCCCCC(O)=C1C(=O)C(CCSC)N(C(=O)CC(C)CC(C)(C)C)C1=O (stereo not shown) [24i]
H3; Table 1
  MIC H3: 8 µg/mL (≈ 19.4 µM)
S1; Table 1
  MIC S1: 0.25 µg/mL (≈ 0.607 µM)
S. aureus membrane
  pIC50: < 4.00
[1]
  SOL: >300 µM
[2]; Table 1
  MIC S2: 0.5 µg/mL (≈ 1.21 µM)
E2; Table 1
  MIC E2: 0.25 µg/mL (≈ 0.607 µM)
P9; Table 1
  MIC P9: 0.25 µg/mL (≈ 0.607 µM)
S26; Table 1
  MIC S26: 1 µg/mL (≈ 2.43 µM)
E. Coli RNAP
  pIC50: 4.48
P9B; Table 1
  MIC P9B: 2 µg/mL (≈ 4.86 µM)
[3]; [8]
  Hek293 (LD50, μM): 10.1 µM
[4]; human peripheral blood cells
  PMBC (LD50, μM): 30.3 µM
[5]
  RBCL (IC50, μM): Active
H4; Table 1
  MIC H4: 2 µg/mL (≈ 4.86 µM)
P1; Table 1
  MIC P1: 0.25 µg/mL (≈ 0.607 µM)
S4; Table 1
  MIC S4: 0.5 µg/mL (≈ 1.21 µM)
E1; Table 1
  MIC E1: 0.5 µg/mL (≈ 1.21 µM)

## CCCCCCCC(O)=C1C(=O)C(CCSC)N(C(=O)CC(C)CC(C)(C)C)C1=O (stereo not shown) [24j]
H3; Table 1
  MIC H3: >64 µg/mL
S1; Table 1
  MIC S1: 0.5 µg/mL (≈ 1.14 µM)
S. aureus membrane
  pIC50: < 4.00
[1]
  SOL: >300 µM
[2]; Table 1
  MIC S2: 0.5 µg/mL (≈ 1.14 µM)
E2; Table 1
  MIC E2: 0.25 µg/mL (≈ 0.569 µM)
P9; Table 1
  MIC P9: 0.12 µg/mL (≈ 0.273 µM)
S26; Table 1
  MIC S26: 1 µg/mL (≈ 2.27 µM)
E. Coli RNAP
  pIC50: 4.72
P9B; Table 1
  MIC P9B: 4 µg/mL (≈ 9.1 µM)
[3]; [8]
  Hek293 (LD50, μM): 10.1 µM
[4]; human peripheral blood cells
  PMBC (LD50, μM): 30.3 µM
[5]
  RBC membrane lysis activity (active/inactive): Active
H4; Table 1
  MIC H4: 2 µg/mL (≈ 4.55 µM)
P1; Table 1
  MIC P1: 0.12 µg/mL (≈ 0.273 µM)
S4; Table 1
  MIC S4: 0.5 µg/mL (≈ 1.14 µM)
E1; Table 1
  MIC E1: 0.25 µg/mL (≈ 0.569 µM)

## CC12CC3CC(C)(C1)CC(C/C(O)=C1\C(=O)[C@@H]4CCCC(=O)N4C1=O)(C3)C2 [29a]
E. Coli RNAP
  pIC50: < 4.00
H4; Table 2 and its footnote f
  MIC: 16 µg/mL (≈ 43.1 µM)
All strains
  MIC: > 32 µg/mL
